In patent publication US7063946B2, “Methods, reagents, kits and apparatus for protein function analysis” (Meso Scale Technologies, LLC., priority 2001, dated 2006):

Tests used:
Assay type in all cases: biochemical
Kdr [1] = target: T1, Kdr (Mus musculus, UniProt P35918); assay: Kinase inhibitor profiling, pEY phosphorylation
T1 construct: specificity data for proteins generated from a library of eighteen full-length clones; biotin on random lysines (biotin-Lys-tRNA); host or cells: rabbit reticulocyte lysate, coupled transcription/translation (TnT, Promega)
T1 sequence (P35918 20-1345): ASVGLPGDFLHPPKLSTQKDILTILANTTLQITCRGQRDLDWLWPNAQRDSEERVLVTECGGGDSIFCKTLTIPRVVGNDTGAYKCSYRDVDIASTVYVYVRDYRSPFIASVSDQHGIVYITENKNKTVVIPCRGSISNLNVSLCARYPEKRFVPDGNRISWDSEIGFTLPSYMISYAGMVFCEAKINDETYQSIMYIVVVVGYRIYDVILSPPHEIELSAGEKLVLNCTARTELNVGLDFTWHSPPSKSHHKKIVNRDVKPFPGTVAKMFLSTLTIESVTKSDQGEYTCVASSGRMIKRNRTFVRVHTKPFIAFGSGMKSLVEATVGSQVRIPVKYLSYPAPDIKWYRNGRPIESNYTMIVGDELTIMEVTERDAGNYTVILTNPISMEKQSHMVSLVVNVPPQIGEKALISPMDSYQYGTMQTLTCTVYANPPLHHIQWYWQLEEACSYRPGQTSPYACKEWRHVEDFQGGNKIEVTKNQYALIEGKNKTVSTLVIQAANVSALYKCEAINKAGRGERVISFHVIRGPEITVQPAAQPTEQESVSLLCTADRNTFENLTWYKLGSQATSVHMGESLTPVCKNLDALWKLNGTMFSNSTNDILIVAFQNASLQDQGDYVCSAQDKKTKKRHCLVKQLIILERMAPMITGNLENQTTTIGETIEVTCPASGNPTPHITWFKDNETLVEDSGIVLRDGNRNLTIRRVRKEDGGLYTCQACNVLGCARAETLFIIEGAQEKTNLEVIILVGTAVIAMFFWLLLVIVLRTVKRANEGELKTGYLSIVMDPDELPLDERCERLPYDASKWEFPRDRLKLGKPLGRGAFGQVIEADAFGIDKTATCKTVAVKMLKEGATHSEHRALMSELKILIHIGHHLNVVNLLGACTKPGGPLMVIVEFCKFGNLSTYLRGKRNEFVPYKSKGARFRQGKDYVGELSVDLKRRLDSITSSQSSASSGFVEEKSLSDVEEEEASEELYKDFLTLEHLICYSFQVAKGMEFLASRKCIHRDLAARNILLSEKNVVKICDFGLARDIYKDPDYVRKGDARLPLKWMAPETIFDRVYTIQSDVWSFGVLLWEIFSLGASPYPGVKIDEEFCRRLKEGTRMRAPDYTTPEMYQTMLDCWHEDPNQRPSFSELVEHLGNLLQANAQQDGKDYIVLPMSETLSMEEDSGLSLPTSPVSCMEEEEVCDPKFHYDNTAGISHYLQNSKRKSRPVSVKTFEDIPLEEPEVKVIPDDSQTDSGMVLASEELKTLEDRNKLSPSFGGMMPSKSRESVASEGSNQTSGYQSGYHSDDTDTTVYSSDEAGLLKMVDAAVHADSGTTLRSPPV
Protocol: Proteins were produced in an in vitro transcription and translation reaction. […] The unbound components of the reaction containing endogenous kinases were removed by three washes with TT-buffer (25 mM Tris-HCl buffer pH 7.4 and 0.004% Triton), two five minutes washings with high-salt wash buffer (25 mM Tris-HCl buffer pH 7.4, 0.004% Triton, 1M NaCl and 5 mM DTT) and 3 more washes with TT-buffer. To these immobilized and purified proteins a tyrosine kinase substrate, 5 nM pEY (poly Glu-Tyr, Sigma, MO), was added in a 50 μl reaction solution containing 5 mM MgCl2, 5 mM MnCl2, 100 μM ATP, 25 mM Tris-HCl buffer pH 7.4, 0.05 mM Na3VO4, 0.004% TritonX-100, 2 mM DTT and EDTA-free protease inhibitor (Roche Molecular Biochemicals). This mixture was incubated with shaking at room temperature overnight to allow phosphorylation of the pEY substrate by the immobilized kinases. Following this incubation, 45 μl of this mixture was transferred to a streptavidin or avidin-coated NPT IPR plate coated with biotinylated anti-phosphotyrosine antibody (PY20, Zymed labs, CA) followed by incubation for 30 minutes at room temperature to allow the binding of the phosphorylated pEY substrate to the PY20 coated NPT plate. Following this binding step, 50 ng Sulfo-TAG labeled anti-phosphotyrosine in buffer containing 25 mM Tris-HCl buffer pH 7.4, 5 mM MgCl2, 0.05 mM Na3VO4, 0.004% TritonX-100, 2 mM DTT and 0.05% IgG was added followed by incubation at room temperature for 30 mm. The unbound reagents were removed by one time washing with water, and the TAG label was detected in presence of 150 μl IPR assay buffer (0.4 mM Gly-Gly buffer, pH 7.8, 1 mM EDTA, 0.1 M TPA). The ECL signals were measured using an imaging plate reader.
(§1) The unbound components of the translation reaction (including any endogenous kinases) were removed by 3 washes with TT-buffer (25 mM Tris-HCl buffer pH 7.4 and 0.004% Triton), two five minutes washes with high-salt wash buffer (25 mM Tris-HCl buffer pH 7.4, 0.004% Triton, 1M NaCl and 5 mM DTT) and 3 washes with TT-buffer. […] The mixture was incubated at room temperature for 10 mm before starting the kinase reaction by adding 25 μl of 200 μM ATP in buffer A. This mixture was incubated with intermittent shaking at room temperature for 2 hours to overnight to allow (a) phosphorylation of the pEY substrate and (b) autophosphorylation of the immobilized kinases. Autophosphorylation and phosphorylation of the pEY was measured as described in Examples 7 and 8.
(§2) The ECL signal in control wells produced by tyrosine kinases was compared to the wells containing inhibitor compounds.

Kdr [2] = target: T1, Kdr; assay: Kinase inhibitor profiling, autophosphorylation
Protocol: Proteins were produced from DNA plasmids of Mock Luciferase, Promega, tyrosine kinase clone Spleen Tyrosine kinase (SYK, IMAGE ID# 3870426) and Eph receptor-A7 (EphA7, IMAGE ID# 3991628) (Incyte Genomics, CA) and immobilized on streptavidin or avidin coated NPT-IPR plates as described in the Example 7. To promote autophosphorylation in these immobilized and purified proteins, Mn++ ions were added in a 50 μl reaction containing 5 mM MgCl2, 5 mM MnCl2, 100 μM ATP, 25 mM Tris-HCl buffer pH 7.4, 0.05 mM Na3VO4, 0.004% TritonX-100, 2 mM DTT and EDTA-free protease inhibitor (Roche Molecular Biochemicals). This mixture was incubated with shaking at room temperature overnight to allow autophosphorylation. Following this incubation, wells were washed 2 times with TT-buffer and 2 times with water. Following this step, 50 ng Sulfo-TAG labeled anti-phosphotyrosine in buffer containing 25 mM Tris-HCl buffer pH 7.4, 5 mM MgCl2, 0.05 mM Na3VO4, 0.004% TritonX-100, 2 mM DTT and 0.05% IgG in a final volume of 50 μl was added followed by incubation at room temperature for 45 min. The unbound reagents were removed by one time washing with water, and the TAG label was detected in presence of 150 μl IPR assay buffer (0.4 mM Gly—Gly buffer, pH 7.8, 1 mM EDTA, 0.1 M TPA). The ECL signals were measured using an imaging plate reader.
as §1, §2

BTK = target: T2, BTK (Homo sapiens, UniProt Q06187); assay: Kinase inhibitor profiling, autophosphorylation
T2 construct: specificity data for proteins generated from a library of eighteen full-length clones; host or cells: rabbit reticulocyte lysate, TnT coupled in vitro transcription/translation (cell-free)
T2 sequence (Q06187 whole entry): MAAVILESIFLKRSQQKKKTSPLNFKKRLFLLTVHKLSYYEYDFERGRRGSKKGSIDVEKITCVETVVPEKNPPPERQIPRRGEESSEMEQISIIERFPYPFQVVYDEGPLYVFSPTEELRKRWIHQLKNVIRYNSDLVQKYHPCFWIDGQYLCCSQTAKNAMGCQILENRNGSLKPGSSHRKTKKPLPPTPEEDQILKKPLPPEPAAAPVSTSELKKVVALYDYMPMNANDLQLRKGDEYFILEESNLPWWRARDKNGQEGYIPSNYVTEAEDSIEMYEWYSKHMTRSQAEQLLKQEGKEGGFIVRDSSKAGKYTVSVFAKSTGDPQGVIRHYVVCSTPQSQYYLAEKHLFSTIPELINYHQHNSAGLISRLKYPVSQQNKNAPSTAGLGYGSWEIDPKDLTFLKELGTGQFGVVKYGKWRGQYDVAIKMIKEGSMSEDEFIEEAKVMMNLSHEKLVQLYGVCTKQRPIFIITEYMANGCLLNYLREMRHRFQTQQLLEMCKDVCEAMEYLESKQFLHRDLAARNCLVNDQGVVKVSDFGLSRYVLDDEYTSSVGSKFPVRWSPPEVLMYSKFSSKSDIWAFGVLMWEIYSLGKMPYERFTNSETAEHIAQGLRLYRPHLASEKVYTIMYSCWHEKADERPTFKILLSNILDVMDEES

| Molecule | Inhibition specificity towards pEY phosphorylation at 10X IC50, Kdr (Kdr [1]) | Inhibition specificity towards Autophosphorylation at 10X IC50, Kdr (Kdr [2]) | Inhibition specificity towards Autophosphorylation at 10X IC50, BTK (BTK) |
| --- | --- | --- | --- |
| COc1cc2ncnc(Nc3ccc(O)cc3)c2cc1OC [WHI-P131] | H (high inhibition (“H”=less than 25% of the activity remaining)) | M (medium inhibition (“M”=between 25 to 50% of the activity remaining)) | – |
| Cc1ccc(-c2nn(C(C)(C)C)c3ncnc(N)c23)cc1 [PP1] | M (medium inhibition (“M”=between 25 to 50% of the activity remaining)) | L (low inhibition (“L”=between 50–75% of the activity remaining)) | – |
| Cc1cc2ncc(-c3ccc(O)c(O)c3)nc2cc1C [AG-1433] | H (high inhibition (“H”=less than 25% of the activity remaining)) | H (high inhibition (“H”=less than 25% of the activity remaining)) | H (high inhibition (“H”=less than 25% of the activity remaining)) |
| COc1c(C=O)c(O)cc2c1C(=O)c1ccccc1C2=O [Damnacanthal] | H (high inhibition (“H”=less than 25% of the activity remaining)) | H (high inhibition (“H”=less than 25% of the activity remaining)) | H (high inhibition (“H”=less than 25% of the activity remaining)) |
| COC(=O)c1ccc(NCc2cc(O)ccc2O)cc1 [AG-957] | – | L (low inhibition (“L”=between 50–75% of the activity remaining)) | L (low inhibition (“L”=between 50–75% of the activity remaining)) |
| CC(C)(C)c1cc(C=C(C#N)C#N)cc(Br)c1O [AG-1024] | M (medium inhibition (“M”=between 25 to 50% of the activity remaining)) | – | L (low inhibition (“L”=between 50–75% of the activity remaining)) |
| COc1cc2ncnc(Nc3ccc(Cl)cc3F)c2cc1OC [VEGFR inhibitor] | H (high inhibition (“H”=less than 25% of the activity remaining)) | M (medium inhibition (“M”=between 25 to 50% of the activity remaining)) | L (low inhibition (“L”=between 50–75% of the activity remaining)) |
| Erbstatin analog | – | L (low inhibition (“L”=between 50–75% of the activity remaining)) | L (low inhibition (“L”=between 50–75% of the activity remaining)) |
